Here are results for one compound from US8492148B2, “Method for amplification of endothelial progenitor cell in vitro” (Foundation for Biomedical Research & Innovation, priority 2005, dated 2013).

Each structure is given as a SMILES string. Entries after “also recorded” stand apart in the source; their conditions may differ.

The assay relates to cord blood CD133 positive cell-derived EPC. Description: EPC colony assay (methylcellulose medium containing physiologically active substances). The assay is classed as cell-based. As to conditions: 1 μM TGF-β inhibitor in serum-free culture medium (compared with 0, 0.1, 10 μM); cultivation for 2 weeks. The procedure: Using the serum-free culture media of the present invention containing various concentrations of TGF-β inhibitor as prepared in Example 1, cord blood CD133 positive cell-derived EPC was expanded in vitro and differentiated. The degree of expansion was evaluated by counting the number of colonies, and the degree of differentiation was evaluated by separately counting the number of colonies of blood lineage cell and that of EPC. For EPC colony, moreover, large cell colonies and small cell colonies were separately counted, as well as the total number of EPC colonies was counted.
The cord blood-derived mononuclear cells were collected and cultivated in a serum-free culture medium in the same manner as in Example 1. […]
The number of colonies confirmed to be the EPC colonies was counted. The total number of colonies, the number of small cell colonies and the number of large cell colonies were separately counted.
For the blood lineage colony, the number of colonies of four kinds of colonies: erythroid burst-forming unit colony (BFU-E), granulocyte-macrophage lineage colony-forming unit colony (CFU-GM), macrophage colony-forming unit colony (CFU-M) and mixed colony (CFU-GEM) was added, and the appearance frequency thereof was determined over time. […]

Regarding `NC(=O)c1ccc(-c2nc(-c3ccc4c(c3)OCO4)c(-c3ccccn3)[nH]2)cc1` [TGF-β inhibitor, 4-(5-benzo[1.3]dioxol-5-yl-4-pyridin-2-yl-1H-imidazol-2-yl)-benzamide], the “number of EPC colonies per Dish and total number of EPC colonies” value is on record as “at maximum; also recorded: largest number of EPC colonies”.
